Assay results published in PMC10261104, “Regioselective stilbene O-methylations in Saccharinae grasses” (Nature Communications, 2023).

Legend:
[1] = molecular target: T1, SbCOMT (caffeic acid O-methyltransferase) (Sorghum bicolor, UniProt C5YH12); test: ITC; […]ʹ-O-methylation enzyme assay; type: binding
T1 construct: gene SORBI_3007G047300; residues 2–362
T1 sequence (C5YH12 2-362): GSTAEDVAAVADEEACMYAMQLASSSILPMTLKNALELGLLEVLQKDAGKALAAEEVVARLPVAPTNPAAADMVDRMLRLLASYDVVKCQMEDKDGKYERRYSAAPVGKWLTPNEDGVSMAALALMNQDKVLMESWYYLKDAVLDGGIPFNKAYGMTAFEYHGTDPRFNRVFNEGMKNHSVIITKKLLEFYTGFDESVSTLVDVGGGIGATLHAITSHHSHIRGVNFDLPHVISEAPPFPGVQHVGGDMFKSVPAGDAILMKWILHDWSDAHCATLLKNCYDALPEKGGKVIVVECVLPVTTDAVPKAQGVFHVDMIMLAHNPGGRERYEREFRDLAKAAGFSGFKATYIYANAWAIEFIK

[2] = molecular target: T1, SbCOMT (caffeic acid O-methyltransferase); test: ITC; type: binding
[3] = molecular target: T2, SbSOMT (stilbene O-methyltransferase) (Sorghum bicolor, UniProt A0A1B6PFV1); test: ITC; X-ray crystal structure ([…] Å, ternary complex); type: binding
T2 construct: gene SORBI_3007G059100; residues 2–377

[4] = molecular target: T2, SbSOMT (stilbene O-methyltransferase); test: ITC; type: binding
[5] = molecular target: Sorghum bicolor stilbene O-methyltransferase (SbSOMT) (Sorghum bicolor); test: crystal structure; SbSOMT co-crystallised with resveratrol, pinostilbene or pterostilbene, with or without β-NAD; sitting drop vapor diffusion, 18 °C
[6] = molecular target: T2, SbSOMT (stilbene O-methyltransferase); test: ITC; X-ray crystal structures (binary, and ternary with β-NAD at […] Å); methylation assay; type: binding
[7] = molecular target: T2, SbSOMT (stilbene O-methyltransferase); test: ITC; X-ray crystal structure ([…] Å, ternary complex); enzyme kinetics (Km […]); type: binding
[8] = molecular target: T1, SbCOMT (caffeic acid O-methyltransferase); test: ITC; enzyme kinetics (Km […]); type: binding

T2 sequence (A0A1B6PFV1 2-377): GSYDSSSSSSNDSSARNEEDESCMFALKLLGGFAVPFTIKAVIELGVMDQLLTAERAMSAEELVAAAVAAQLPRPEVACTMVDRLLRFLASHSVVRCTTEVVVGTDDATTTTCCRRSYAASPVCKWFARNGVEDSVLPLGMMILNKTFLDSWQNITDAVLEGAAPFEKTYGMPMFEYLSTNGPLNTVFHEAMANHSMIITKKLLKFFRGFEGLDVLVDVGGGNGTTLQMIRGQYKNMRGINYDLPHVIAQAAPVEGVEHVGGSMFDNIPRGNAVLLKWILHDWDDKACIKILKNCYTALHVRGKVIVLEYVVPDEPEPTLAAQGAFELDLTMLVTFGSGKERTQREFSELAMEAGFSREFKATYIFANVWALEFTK

Work on `Oc1cc(O)cc(/C=C/c2ccc(O)c(O)c2)c1` [piceatannol] yielded a Kd [1] of 1.26 µM.

In the case of `COc1cc(/C=C/c2ccc(O)cc2)cc(OC)c1` [pterostilbene], the Kd ([2]; read-out: SbCOMT) is reported as 3.99 µM and the Kd [3] is reported as 11.2 µM.

Compound `C[S+](CC[C@H](N)C(=O)[O-])C[C@H]1O[C@@H](n2cnc3c(N)ncnc32)[C@H](O)[C@@H]1O` (stereo partly shown) [SAM] has a Kd ([2]; read-out: SbCOMT) of 13 µM and a Kd [4] of 90 µM.

In the case of “Sorghum bicolor stilbene O-methyltransferase (SbSOMT) (enzyme)”, the stoichiometry N [5] is reported as 2.

With `Oc1ccc(/C=C/c2cc(O)cc(O)c2)cc1` [resveratrol] the Kd [2] was 1.55 µM and the Kd [6] was 4.69 µM.

`COc1cc(O)cc(/C=C/c2ccc(O)cc2)c1` [pinostilbene] showed a Kd [7] of 2.86 µM and a Kd [8] of 1.79 µM.
